Where a name gives a salt, the structure may show the parent alone.
Molecular target: T1, HCV polymerase (Hepatitis C virus genotype 1b, UniProt P26663)
T1 construct: a region encoding NS5B (J Virol 1991 March, 65(3), 1105-13, 544 amino acids after deletion of 47 amino acids on the C-terminal); 6xHis (C); made in house; host or cells: Escherichia coli
Assay: biochemical
Design: species or system HCV BK strain
Outline: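 Recombinant HCV BK-strain NS5B (C-terminal 47 aa deleted, His6-tagged, E. coli), 0.5 μg/ml, run with 5 μg/ml in vitro-transcribed RNA template (polyU/3′X), ATP/GTP/CTP 50 μM, UTP 2 μM plus [3H]UTP, pH 7.5, 25° C, 90 min. TCA-precipitated RNA counted by scintillation; IC50 from activity with vs without compound.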

T1 sequence (P26663 2420-2963): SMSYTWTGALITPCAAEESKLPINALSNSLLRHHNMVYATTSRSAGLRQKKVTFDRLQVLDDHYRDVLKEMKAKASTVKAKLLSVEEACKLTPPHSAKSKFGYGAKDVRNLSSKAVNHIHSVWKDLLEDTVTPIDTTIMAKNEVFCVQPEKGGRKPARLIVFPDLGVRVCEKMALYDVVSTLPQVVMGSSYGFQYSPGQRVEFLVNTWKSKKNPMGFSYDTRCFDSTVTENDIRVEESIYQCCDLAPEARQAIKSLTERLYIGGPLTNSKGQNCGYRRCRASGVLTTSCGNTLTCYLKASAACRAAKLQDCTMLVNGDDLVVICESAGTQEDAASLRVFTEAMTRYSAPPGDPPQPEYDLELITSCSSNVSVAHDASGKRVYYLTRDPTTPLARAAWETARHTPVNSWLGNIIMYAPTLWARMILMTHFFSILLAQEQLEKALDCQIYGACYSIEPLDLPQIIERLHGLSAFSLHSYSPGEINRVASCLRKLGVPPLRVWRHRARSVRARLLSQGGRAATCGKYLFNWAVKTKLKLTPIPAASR

**Q.** For `COc1ccc2c(c1)OCCn1c-2c(C2CCCCC2)c2ccc(C(=O)NC(C)(C)c3nc4cc(-c5nc(C)no5)ccc4[nH]3)cc21` [Example 2-370, N-(1-methyl-1-[5-(3-methyl-1,2,4-oxadiazol-5-yl)-1H-benzimidazol-2-yl]ethyl}-12-cyclohexyl-3-methoxy-6,7-dihydro-5-oxa-7a-azadibenzo[a,e]azulene-9-carboxamide], which IC50 is on record?
**A.** < 0.1 µM

**Q.** Which IC50 does the source give for `COc1ccc2c(c1)OCCn1c-2c(C2CCCCC2)c2ccc(C(=O)N[C@@H](Cc3ccc(O)cc3)c3n[nH]c(C)n3)cc21` [Example 2-526, N—[(S)-2-(4-hydroxyphenyl)-1-(5-methyl-1H-1,2,4-triazol-3-yl)ethyl]-12-cyclohexyl-3-methoxy-6,7-dihydro-5-oxa-7a-azadibenzo[a,e]azulene-9-carboxamide] here?
**A.** < 0.1 µM

**Q.** With `CC1CCN(CCN2CCn3c(c(C4CCCCC4)c4ccc(C(=O)O)cc43)-c3ccccc32)CC1` [Example 1-75, 13-cyclohexyl-5-[2-(4-methylpiperidin-1-yl)ethyl]-6,7-dihydro-5H-benzo[5,6][1,4]diazepino[7,1-a]indole-10-carboxylic acid dihydrochloride] as the compound, how does the IC50 read?
**A.** < 0.1 µM

**Q.** How did the IC50 turn out when `Cc1ccc2c(c1)N(CCN1CCCC(C)C1)CCn1c-2c(C2CCCCC2)c2ccc(C(=O)O)cc21` (stereo not drawn) [Example 1-253, 13-cyclohexyl-3-methyl-5-[2-(3-methylpiperidin-1-yl)ethyl]-6,7-dihydro-5H-benzo[5,6][1,4]diazepino[7,1-a]indole-10-carboxylic acid dihydrochloride] was run?
**A.** < 0.1 µM

**Q.** `COc1ccc2c(c1)N(CC(C)C)CCn1c-2c(C2CCCCC2)c2ccc(C(=O)NC3(C(=O)Nc4ccc(/C=C/C(=O)O)cc4)CCC3)cc21` [Example 1-484, (E)-3-[4-({1-[(13-cyclohexyl-5-isobutyl-3-methoxy-6,7-dihydro-5H-benzo[5,6][1,4]diazepino[7,1-a]indole-10-carbonyl)amino]cyclobutanecarbonyl}amino)phenyl]acrylic acid] was tested. Which IC50 did it give?
**A.** < 0.1 µM

**Q.** How did the IC50 turn out when `COc1ccc2c(c1)OCCn1c-2c(C2CCCCC2)c2ccc(C(=O)NC3(C(=O)Nc4ccc(/C=C/C(=O)O)c(OC)c4)CCC3)cc21` [Example 2-531, (E)-3-[4-({1-[(12-cyclohexyl-3-methoxy-6,7-dihydro-5-oxa-7a-azadibenzo[a,e]azulene-9-carbonyl)amino]cyclobutanecarbonyl}amino)-2-methoxyphenyl]acrylic acid] was run?
**A.** < 0.1 µM

**Q.** Which IC50 does the source give for `CC(=O)N1CCN(C(=O)CN2CCn3c(c(C4CCCCC4)c4ccc(C(=O)O)cc43)-c3ccccc32)CC1` [Example 1-51, 5-[2-(4-acetylpiperazin-1-yl)-2-oxoethyl]-13-cyclohexyl-6,7-dihydro-5H-benzo[5,6][1,4]diazepino[7,1-a]indole-10-carboxylic acid monohydrochloride] here?
**A.** < 0.1 µM

**Q.** `COC(=O)[C@H](Cc1ccc(O)cc1)NC(=O)c1ccc2c(C3CCCCC3)c3n(c2c1)CCOc1cc(OC)ccc1-3` [Example 2-373, methyl (S)-2-[(12-cyclohexyl-3-methoxy-6,7-dihydro-5-oxa-7a-azadibenzo[a,e]azulene-9-carbonyl)amino]-3-(4-hydroxyphenyl)propionate] was tested. Which IC50 did it give?
**A.** < 0.1 µM

**Q.** How did the IC50 turn out when `COCC(C)(NC(=O)c1ccc2c(C3CCCCC3)c3n(c2c1)CCOc1ccccc1-3)C(=O)O` (stereo not drawn) [Example 2-154, 2-[(12-cyclohexyl-6,7-dihydro-5-oxa-7a-azadibenzo[a,e]azulene-9-carbonyl)amino]-3-methoxy-2-methylpropionic acid] was run?
**A.** 0.1 to 1 µM

**Q.** `COC(=O)c1ccc(C(=O)NCC(C)(C)NC(=O)c2ccc3c(C4CCCCC4)c4n(c3c2)CCOc2ccccc2-4)cc1` [Example 2-212, methyl N-{2-[(12-cyclohexyl-6,7-dihydro-5-oxa-7a-azadibenzo[a,e]azulene-9-carbonyl)amino]-2-methylpropyl}-terephthalamate] was tested. Which IC50 did it give?
**A.** 0.1 to 1 µM

**Q.** With `COc1ccc2c(c1)N(CC(=O)N1CCCCC1)CCn1c-2c(C2CCCCC2)c2ccc(C(=O)O)cc21` [Example 1-65, 13-cyclohexyl-3-methoxy-5-[2-oxo-2-(piperidin-1-yl)ethyl]-6,7-dihydro-5H-benzo[5,6][1,4]diazepino[7,1-a]indole-10-carboxylic acid monohydrochloride] as the compound, how does the IC50 read?
**A.** < 0.1 µM

**Q.** How did the IC50 turn out when `CC(C)N1CCCC(CCN2CCn3c(c(C4CCCCC4)c4ccc(C(=O)O)cc43)-c3ccc(OCc4ccccc4)cc32)C1` (stereo not drawn) [Example 1-362, 3-benzyloxy-13-cyclohexyl-5-[2-(1-isopropylpiperidin-3-yl)ethyl]-6,7-dihydro-5H-benzo[5,6][1,4]diazepino[7,1-a]indole-10-carboxylic acid dihydrochloride] was run?
**A.** < 0.1 µM

**Q.** `COc1ccc2c(c1)OCCn1c-2c(C2CCCCC2)c2ccc(C(=O)N[C@@H](Cc3ccc(O)cc3)c3noc(=O)[nH]3)cc21` [Example 2-429, N—[(S)-2-(4-hydroxyphenyl)-1-(5-oxo-4,5-dihydro-1,2,4-oxadiazol-3-yl)ethyl]-12-cyclohexyl-3-methoxy-6,7-dihydro-5-oxa-7a-azadibenzo[a,e]azulene-9-carboxamide] was tested. Which IC50 did it give?
**A.** < 0.1 µM

**Q.** Which IC50 does the source give for `COc1ccc2c(c1)OCCn1c-2c(C2CCCCC2)c2ccc(C(=O)O)nc21` [Example 7-9, 12-cyclohexyl-3-methoxy-6,7-dihydro-5-oxa-7a,8-diazadibenzo[a,e]azulene-9-carboxylic acid] here?
**A.** < 0.1 µM

**Q.** For `CN1CCCC(CCN2CCn3c(c(C4CCCCC4)c4ccc(C(=O)O)cc43)-c3ccc(Cl)cc32)C1` (stereo not drawn) [Example 1-221, 3-chloro-13-cyclohexyl-5-[2-(1-methylpiperidin-3-yl)ethyl]-6,7-dihydro-5H-benzo[5,6][1,4]diazepino[7,1-a]indole-10-carboxylic acid dihydrochloride], which IC50 is on record?
**A.** < 0.1 µM

**Q.** Which IC50 does the source give for `CC(C)(NC(=O)c1ccc2c(C3CCCCC3)c3n(c2c1)CCOc1ccccc1-3)c1nc2cc(C(=O)O)ccc2[nH]1` [Example 2-214, 2-{1-[(12-cyclohexyl-6,7-dihydro-5-oxa-7a-azadibenzo[a,e]azulene-9-carbonyl)amino]-1-methylethyl}-1H-benzimidazole-5-carboxylic acid] here?
**A.** < 0.1 µM

**Q.** How did the IC50 turn out when `CONC(=O)[C@H](Cc1ccc(O)cc1)NC(=O)c1ccc2c(C3CCCCC3)c3n(c2c1)CCOc1cc(OC)ccc1-3` [Example 2-426, N—[(S)-2-(4-hydroxyphenyl)-1-(methoxycarbamoyl)ethyl]-12-cyclohexyl-3-methoxy-6,7-dihydro-5-oxa-7a-azadibenzo[a,e]azulene-9-carboxamide] was run?
**A.** < 0.1 µM

**Q.** For `CC(=O)N(C)c1ccc(N2CCOCC2)c(COc2ccc3c(c2)OCCn2c-3c(C3CCCCC3)c3ccc(C(=O)O)nc32)c1` [Example 7-6, 3-[5-(N-acetyl-N-methylamino)-2-(morpholin-4-yl)benzyloxy]-12-cyclohexyl-6,7-dihydro-5-oxa-7a,8-diazadibenzo[a,e]azulene-9-carboxylic acid dihydrochloride], which IC50 is on record?
**A.** < 0.1 µM

**Q.** With `O=C(NCCc1ccc(O)cc1)c1ccc2c(C3CCCCC3)c3n(c2c1)CCOc1ccccc1-3` [Example 2-205, N-[2-(4-hydroxyphenyl)ethyl]-12-cyclohexyl-6,7-dihydro-5-oxa-7a-azadibenzo[a,e]azulene-9-carboxamide] as the compound, how does the IC50 read?
**A.** < 0.1 µM

**Q.** Which IC50 does the source give for `CC(C)Oc1ccc2c(c1)OCCn1c-2c(C2CCCCC2)c2ccc(C(=O)O)cc21` [Example 2-555, 12-cyclohexyl-3-isopropoxy-6,7-dihydro-5-oxa-7a-azadibenzo[a,e]azulene-9-carboxylic acid] here?
**A.** < 0.1 µM

**Q.** How did the IC50 turn out when `CCOc1ccc2c(c1)N(CCN1CCC[C@@H](COC)C1)CCn1c-2c(C2CCCCC2)c2ccc(C(=O)O)cc21` [Example 1-499, 13-cyclohexyl-3-ethoxy-5-[2-((R)-3-methoxymethylpiperidin-1-yl)ethyl]-6,7-dihydro-5H-benzo[5,6][1,4]diazepino[7,1-a]indole-10-carboxylic acid dihydrochloride] was run?
**A.** < 0.1 µM

**Q.** `CCC1CCCCN1CCN1CCn2c(c(C3CCCCC3)c3ccc(C(=O)O)cc32)-c2ccccc21` (stereo not drawn) [Example 1-332, 13-cyclohexyl-5-[2-(2-ethylpiperidin-1-yl)ethyl]-6,7-dihydro-5H-benzo[5,6][1,4]diazepino[7,1-a]indole-10-carboxylic acid dihydrochloride] was tested. Which IC50 did it give?
**A.** < 0.1 µM

**Q.** `CN1CCN(C(=O)CN2CCn3c(c(C4CCCCC4)c4ccc(C(=O)O)cc43)-c3ccccc32)CC1` [Example 1-50, 13-cyclohexyl-5-[2-(4-methylpiperazin-1-yl)-2-oxoethyl]-6,7-dihydro-5H-benzo[5,6][1,4]diazepino[7,1-a]indole-10-carboxylic acid dihydrochloride] was tested. Which IC50 did it give?
**A.** < 0.1 µM

**Q.** With `COc1ccc2c(c1)OCCn1c-2c(C2CCCCC2)c2ccc(C(=O)N[C@@H](Cc3ccc(NC(=O)OCc4ccccc4)cc3)c3csc(C)n3)cc21` [Example 2-410, benzyl (4-[(S)-2-[(12-cyclohexyl-3-methoxy-6,7-dihydro-5-oxa-7a-azadibenzo[a,e]azulene-9-carbonyl)amino]-2-(2-methylthiazol-4-yl)ethyl]phenyl}carbamate] as the compound, how does the IC50 read?
**A.** < 0.1 µM

**Q.** For `O=C(O)c1ccc2c(C3CCCCC3)c3n(c2c1)CCOc1ccccc1-3` [Example 9-2, 12-cyclohexyl-6,7-dihydro-5-oxa-7a-azadibenzo[a,e]azulene-9-carboxylic acid], which IC50 is on record?
**A.** < 0.1 µM

**Q.** With `N#Cc1ccc2c(c1)N(CCN1CCCCC1)CCn1c-2c(C2CCCCC2)c2ccc(C(=O)O)cc21` [Example 1-490, 3-cyano-13-cyclohexyl-5-[2-(piperidin-1-yl)ethyl]-6,7-dihydro-5H-benzo[5,6][1,4]diazepino[7,1-a]indole-10-carboxylic acid monohydrochloride] as the compound, how does the IC50 read?
**A.** < 0.1 µM

**Q.** For `COCC1CCCCN1CCN1CCn2c(c(C3CCCCC3)c3ccc(C(=O)O)cc32)-c2ccc(C)cc21` (stereo not drawn) [Example 1-305, 13-cyclohexyl-5-[2-(2-methoxymethylpiperidin-1-yl)ethyl]-3-methyl-6,7-dihydro-5H-benzo[5,6][1,4]diazepino[7,1-a]indole-10-carboxylic acid dihydrochloride], which IC50 is on record?
**A.** < 0.1 µM
